Earlier results, collected in patent US10653683B2, “Tiotropium inhalation solution for nebulization” (GLENMARK SPECIALTY S.A., priority 2016, dated 2020).

Legend:
[1] = relative to histamine

| Compound | Solubility in methanol (methanol) | Solubility in water (water) | Bronchoconstrictor properties, times less potent than histamine [1] [times] |
| --- | --- | --- | --- |
| C[N+]1(C)C2CC(OC(=O)C(O)(c3cccs3)c3cccs3)CC1C1OC12 (stereo not drawn) [Tiotropium bromide monohydrate, (1α, 2ß, 4ß, 5α, 7ß)-7-[(hydroxydi-2-thienylacetyl)oxy]-9,9-dimethyl-3-oxa-9-azoniatricyclo [3.3.1.02, 4] nonane bromide monohydrate] | soluble | sparingly soluble |  |
| benzalkonium chloride |  |  | 7.4 |
